Measured values taken from patent US9920074B2 (ACEA BIOSCIENCES INC., priority 2013, dated 2018).
“Also recorded” adds a separate entry of the source.

How the values were obtained:
Type in all cases: cell-based
[1] = target: T1, Btk (Tyr223) phosphorylation in Ramos cells (Homo sapiens, UniProt Q06187); experiment: Btk Tyr223 phosphorylation inhibition, western blotting assay (Example 72)
T1 construct: endogenous in cells; host or cells: Ramos cells (ATCC)
Description: Ramos cell line was obtained from the American Type Culture Collection and was maintained at 37° C. with 5% CO2, in media supplemented with 10% fetal bovine serum, penicillin (100 units/mL) and streptomycin (100 μg/mL), Goat F(ab′)2 Anti-Human IgM-UNLB was obtained from SouthernBiotech.
Ramos cells were treated with compounds at indicated doses for 45 min at room temperature, followed by stimulation of 12 μg/mL of IgM for 30 min, and then lysed. Western blots were performed on the cell lysate using Phospho-Btk (Tyr223), Phospho-Btk (Tyr551), Btk, Phospho-PLCγ2 (Tyr1217), PLCγ2, Phospho-p44/42 MAPK (Erk1/2) (Thr202/Tyr204) and p44/42 MAPK (Erk1/2) antibodies (Cell Signaling Technology). The density of blotting band was acquired using ImageJ software, and the IC50 of Btk (Tyr223) phosphorylation was fitted using a non-linear regression model by GraphPad Prism version 4.0.

[2] = target: T2, Btk phosphorylation in Ramos cells (Homo sapiens, UniProt Q06187); experiment: Pulse chase western blotting assay for irreversibility / binding property; details: 100 nM for 45 mins, monitored 4, 6 and 8 h post removal
T2 construct: endogenous in cells; host or cells: Ramos cells (ATCC)
Description: Ramos cells were treated with Compound I-1 at 100 nM for 45 min. Cells were then re-suspended in compound free media and stimulated with 6 μg/ml IgM at 0, 4, 6 or 8 hours after compound removal. Cells were then lysed after 30 mm IgM stimulation. West blotting analysis were then performed.
Ramos cells were treated with Compounds at 100 nM for 45 min. Cells were then re-suspended in compound free media and stimulated with 6 μg/ml anti-IgM at 0, 4, 6 or 8 hours after compound removal. Cells were then lysed after 30 mm anti-IgM stimulation. Western blotting analysis was then performed.

[3] = target: T1, Btk (Tyr223) phosphorylation in Ramos cells; experiment: Western blotting assay for Btk (Example 73); details: 45 min, 6 μg/mL anti-IgM, read-out: Btk Inhibition
Method in brief: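 Ramos cells pre-treated with compound for 45 min at room temperature, then stimulated with 6 μg/mL anti-IgM for 30 min and lysed. Phospho-Btk (Tyr223) measured by Western blot band densitometry; IC50 fitted by non-linear regression.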

[4] = target: T3, Jak3 phosphorylation in NK-92 cells (Homo sapiens, UniProt P52333); experiment: Western blotting assay for Jak3; details: 1 hour, IL-2 stimulation, read-out: Jak3 inhibition
T3 construct: endogenous in cells; host or cells: NK-92 cells (ATCC)
T3 sequence (P52333 1-1124): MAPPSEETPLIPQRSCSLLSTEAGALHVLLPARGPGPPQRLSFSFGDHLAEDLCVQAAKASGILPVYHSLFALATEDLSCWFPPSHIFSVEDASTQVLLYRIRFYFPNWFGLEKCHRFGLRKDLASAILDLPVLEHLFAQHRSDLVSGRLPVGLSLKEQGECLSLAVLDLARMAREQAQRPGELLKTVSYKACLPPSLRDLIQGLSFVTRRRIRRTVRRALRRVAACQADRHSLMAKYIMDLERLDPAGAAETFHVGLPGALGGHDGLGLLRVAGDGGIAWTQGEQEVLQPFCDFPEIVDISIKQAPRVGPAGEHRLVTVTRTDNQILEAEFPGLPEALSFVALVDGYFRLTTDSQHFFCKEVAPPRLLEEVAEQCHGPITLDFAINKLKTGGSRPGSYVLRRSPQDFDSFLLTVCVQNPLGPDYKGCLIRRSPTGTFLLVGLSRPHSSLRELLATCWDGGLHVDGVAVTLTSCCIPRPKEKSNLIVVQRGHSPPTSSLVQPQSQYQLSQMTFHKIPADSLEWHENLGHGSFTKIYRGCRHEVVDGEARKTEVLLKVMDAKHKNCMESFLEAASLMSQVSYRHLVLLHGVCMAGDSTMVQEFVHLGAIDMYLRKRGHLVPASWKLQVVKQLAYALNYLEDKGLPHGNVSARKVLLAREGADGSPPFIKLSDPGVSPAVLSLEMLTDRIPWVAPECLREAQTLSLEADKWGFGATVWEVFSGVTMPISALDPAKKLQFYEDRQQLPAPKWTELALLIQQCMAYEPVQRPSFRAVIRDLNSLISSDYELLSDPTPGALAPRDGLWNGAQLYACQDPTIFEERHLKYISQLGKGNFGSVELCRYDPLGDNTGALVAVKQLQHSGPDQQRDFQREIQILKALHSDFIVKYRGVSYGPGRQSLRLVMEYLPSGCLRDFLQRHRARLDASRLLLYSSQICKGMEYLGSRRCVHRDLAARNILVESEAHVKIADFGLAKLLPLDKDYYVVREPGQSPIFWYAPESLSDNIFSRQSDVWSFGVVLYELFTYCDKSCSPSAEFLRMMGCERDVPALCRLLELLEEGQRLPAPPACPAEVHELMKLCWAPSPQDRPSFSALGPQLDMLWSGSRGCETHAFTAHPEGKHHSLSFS
Description: All cell lines were obtained from the American Type Culture Collection and were maintained at 37° C. with 5% CO2. Ramos cell line was maintained in media supplemented with 10% fetal bovine serum, penicillin (100 units/mL) and streptomycin (100 μg/mL). NK-92 cell line was maintained in media supplemented with 10% fetal bovine serum and 10% horse serum, penicillin (100 units/mL) and streptomycin (100 μg/mL), IL-2 10 ng/mL. Goat F(ab′)2 Anti-Human IgM-UNLB was obtained from SouthernBiotech. IL-2 was obtained from Peprotech.
NK-92 cells were treated with compounds at the dosed indicated for 1 hour in incubator, followed by the IL-2 stimulation for 15 minutes. Cells were then collected and lysed to prepare the cellular extraction. Western blots were performed on cell lysate using Phospho-Jak3, Jak3, Phospho-Stat5, Stat5 antibodies (Cell Signaling Technology). The intensity of blotting band was acquired using Image Lab (Bio-Rad) software, and the IC50 of target was generated with GraphPad Prism.

[5] = tested on: Stat5 phosphorylation in NK-92 cells; experiment: Western blotting assay for Stat5; details: NK92, 1 hour, IL-2 stimulation, read-out: Stat5 inhibition
Method in brief: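 NK-92 cells, maintained with IL-2, were pre-treated with compound for 1 h, then stimulated with IL-2 for 15 min. Lysates were western blotted for phospho- and total Jak3 and Stat5. IC50 came from densitometry of phospho-band intensity.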

T1 sequence (Q06187 whole entry): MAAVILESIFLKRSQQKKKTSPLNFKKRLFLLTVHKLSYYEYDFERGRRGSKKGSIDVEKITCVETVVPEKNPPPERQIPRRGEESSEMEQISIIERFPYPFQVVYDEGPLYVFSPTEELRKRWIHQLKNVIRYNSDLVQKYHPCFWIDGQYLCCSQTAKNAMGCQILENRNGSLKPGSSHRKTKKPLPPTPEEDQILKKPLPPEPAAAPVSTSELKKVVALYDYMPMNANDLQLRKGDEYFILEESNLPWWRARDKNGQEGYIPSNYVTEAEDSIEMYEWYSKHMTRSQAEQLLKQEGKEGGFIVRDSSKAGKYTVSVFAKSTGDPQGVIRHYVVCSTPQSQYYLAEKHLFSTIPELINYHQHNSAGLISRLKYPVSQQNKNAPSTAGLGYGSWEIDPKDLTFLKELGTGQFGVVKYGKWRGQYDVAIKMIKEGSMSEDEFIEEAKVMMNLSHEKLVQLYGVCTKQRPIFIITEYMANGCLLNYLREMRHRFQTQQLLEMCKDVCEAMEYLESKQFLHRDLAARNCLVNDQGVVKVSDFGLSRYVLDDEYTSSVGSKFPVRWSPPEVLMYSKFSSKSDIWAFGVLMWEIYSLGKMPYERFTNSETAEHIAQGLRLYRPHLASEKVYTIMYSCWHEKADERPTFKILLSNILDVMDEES
T2 sequence (Q06187 whole entry): as above

- IC50 ([1]; Btk Tyr223 phosphorylation, 45 min, 12 μg/mL IgM, read-out: BTK Inhibition): < 10 nM
- IC50 ([1]; treated 45 mins, read-out: inhibition IC50 of the phosphorylation of BTK protein): 5 nM
- IC50 [3]: ≤ 10 nM
- IC50 [4]: 200 to 400 nM
- IC50 [5]: 200 to 400 nM
Structure (SMILES): C=CC(=O)Nc1cccc(Oc2nc(Nc3ccc(N4CCN(C)CC4)c(F)c3)ncc2OC)c1 [Compound I-2, N-(3-(2-(3-fluoro-4-(4-methylpiperazin-1-yl)phenylamino)-5-methoxypyrimidin-4-yloxy)phenyl) acrylamide]
- reduction of the Btk Tyr223 phosphorylation in Ramos cells ([1]; western blot): reduction of the Btk Tyr223 phosphorylation
- inhibition of BTK phosphorylation after compound removal (irreversibility) [2]: remains inhibited up to 8 his; also recorded: long term effect of the inhibition was observed after compounds removal up to 8 hours; also recorded: remains inhibited up to 8 hrs; also recorded: irreversibly inhibited the BTK phosphorylation; also recorded: inhibited the Btk phosphorylation in Ramos cells after 8 hours of removal
